“Also recorded” adds a separate entry of the source.
Columns and labels:
NCI-H716 cells = assay: GLP-1 secretion effect in NCI-H716 cells (GLP-1 active ELISA); assay type: cell-based, human; details: 1 hour
From the text: Glucagon-like peptide-1 (GLP-1), which is the hormone secreted from the gut, is involved in an anti-diabetic action by amplifying glucose-stimulated insulin secretion and suppressing the beta-cell death. GLP-1 is also involved in an anti-obesity action by decreasing the rate of gastric emptying and suppressing the appetite. Therefore, a GLP-1 secreting material can be expected to have anti-diabetic and anti-obesity effects.
The human-derived cell line NCI-H716 cells were purchased from the American Type Culture Collection (ATCC, Manassas, Va.). This cell line corresponds to suspension cells isolated from the large-intestinal Adenocarcinoma of an adult, and has been known as a cell line that mainly secrets GLP-1. For the maintenance of proliferation and culture of the cell line, the cells were cultured in RPMI 1640 medium supplemented with 10% fetal bovine serum (FBS), 2 mM L-glutamine, 100 IU/ml penicillin, and 100 μg/ml streptomycin, and for the adherence and differentiation of cells, the Matrigel matrix (Becton Dickinson and Co., Bedford, Mass.) was coated on plates and the cells were cultured in high-glucose DMEM supplemented with 10% FBS, 2 mm L-glutamine, 100 IU/ml penicillin, and 100 μg/ml streptomycin.
The NCI-H716 cell line was cultured at 2×10^5 cells/mL in a 96-well culture plate coated with Matrigel for 3 days. On the day of the experiment, the cells were washed with 1× phosphated buffered saline (PBS). For the control group, Krebs-Ringer bicarbonate buffer (KRB, 128.8 mmol/l NaCl, 4.8 mmol/l KCl, 1.2 mmol/l KH2PO4, 1.2 mmol/l MgSO4, 2.5 mmol/l CaCl2, 5 mmol/l NaHCO3, and 10 mmol/l HEPES, 0.2% BSA, pH 7.4) was used. For the analysis, the samples of different concentrations were added thereto, followed by incubation at 37° C. for 1 hour. After the incubation, the supernatant was taken (100 μL) for GLP-1 analysis, and analyzed by using the GLP-1 active ELISA kit (EGLP-35K, Millipore) according to the manufacturer's manual. The concentration of GLP-1 was calculated based on the supplied GLP-1 standard material (pmol).

hTRPA1 [1] = molecular target: T1, hTRPA1 (Homo sapiens, UniProt O75762); assay: Evaluation of hTRPA1 action using Ca2+ imaging (Fura-2/AM) in cell lines stably expressing hTRPA1; assay type: cell-based; details: for calcium release in hTRPA1 stably expressing cell line: 50 μM, FIG. 2; for activity inhibition by ruthenium red (RR): treatment with cationic channel blocker RR
T1 construct: The hTRPA1-expressing gene (coding region) was cloned; expressed in transfected cells
Procedure: (§1) The hTRPA1-expressing gene (coding region) was cloned according to the manufacturer's protocol for the pcDNA5/FRT Complete System (Invitrogen). In order to verify whether the hTRPA1 gene was accurately inserted into the vector, sequencing was carried out using the ABI 130 or 310 DNA generatic analyzer (Applied Biosystems), and the constructed vector and Pog44 were transduced into Flin-in 293 cells using Lipofectamine 2000 (Invitrogen). After 24 hours, the cells were optionally treated with 100 μg/ml of hygromycin-B (Invitrogen), following by further culturing for 2-3 weeks. Then, only antibiotic-resistant cells were collected, and used for measuring cellular responses of hTRPA1, followed by repeated culturing. The cells were cultured in Dulbecco's modified Eagle's medium (DMEM) supplemented with 10% fetal bovine serum.
The Ca^2+ imaging was conducted to measure hTRPA1 activation. Fura-2/AM (Molecular Probes, USA) was used as a marker for measuring the change in the intracellular calcium concentration. At 20-26 hours before the analysis, cell lines stably expressing hTRPA1 were dispensed in a 96-well plate. The cells were cultured in a solution added with Fura-2/AM (5 μM) at 27° C. for 30 minutes. The cells were washed with an assay buffer (140 mM NaCl, 10 mM HEPES, 2 mM CaCl2.2H2O, 2 mM EGTA, 1 mM MgCl2.6H2O, 10 mM glucose, and 5 mM KCl), added with 100 μL of the assay buffer, and left at room temperature for 15 minutes. The Fura-2/AM-loaded cells were placed on a microscope, and the fluorescence absorbance was measured between 340 nm and 380 nm. The images were recorded at 3-sec intervals, and the change in the intracellular calcium concentration was analyzed using MetalFluor software (Molecular Devices, Sunnyvale, Calif., USA).

[2] = Lacrimation test (solution sprayed onto eyes of participants); assay type: in vivo; details: 1 μM solution sprayed onto eyes
Procedure: The lacrimation test was conducted on the coniferyl alcohol. A solution of 1 μM coniferyl alcohol was used, and experiment participants were asked to write down their feeling when the solution was sprayed onto their eyes.

hTRPA1 [3] = molecular target: T1, hTRPA1; assay: Measurement of intracellular Ca2+ concentration using cell-based analysis (FlexStation, Fluo-4-AM)
Procedure: as §1
The intercellular Ca^2+ concentration was measured by using FlexStation™ (Molecular Devices, Sunnyvale, Calif., USA). Cells were dispensed at 24 hours before the analysis, and treated with 5 μM Fluo-4-AM (Molecular Probes, Eugene, Oreg., USA) as a marker for measuring the change in the intracellular calcium concentration, followed by reaction at 27° C. for 30 minutes. After that, the cells were washed with an assay buffer (140 mM NaCl, 10 mM HEPES, 2 mM CaCl22H2O, 2 mM EGTA, 1 mM MgCl26H2o, 10 mM glucose, and 5 mM KCl), added with 100 μL of the assay buffer, and left at room temperature for 15 minutes. Then, each of extracts and compositions was treated and used to measure fluorescence absorbance at 486 nm (F486) and 516 nm (F516). The change in intercellular calcium concentration was represented as A relative fluorescent unit (RFU), and was analyzed by using the Softmax software (Molecular devices, USA).

[4] = Sensory test for pungent flavor; assay type: in vivo; details: 1 μM solution
Procedure: The sensory test was conducted for the pungent flavor due to coniferyl alcohol. A solution of 1 μM coniferyl alcohol was used, and the sensitivity of the pungent taste was marked in a 15-point scale (n=6).

T1 sequence (O75762 whole entry): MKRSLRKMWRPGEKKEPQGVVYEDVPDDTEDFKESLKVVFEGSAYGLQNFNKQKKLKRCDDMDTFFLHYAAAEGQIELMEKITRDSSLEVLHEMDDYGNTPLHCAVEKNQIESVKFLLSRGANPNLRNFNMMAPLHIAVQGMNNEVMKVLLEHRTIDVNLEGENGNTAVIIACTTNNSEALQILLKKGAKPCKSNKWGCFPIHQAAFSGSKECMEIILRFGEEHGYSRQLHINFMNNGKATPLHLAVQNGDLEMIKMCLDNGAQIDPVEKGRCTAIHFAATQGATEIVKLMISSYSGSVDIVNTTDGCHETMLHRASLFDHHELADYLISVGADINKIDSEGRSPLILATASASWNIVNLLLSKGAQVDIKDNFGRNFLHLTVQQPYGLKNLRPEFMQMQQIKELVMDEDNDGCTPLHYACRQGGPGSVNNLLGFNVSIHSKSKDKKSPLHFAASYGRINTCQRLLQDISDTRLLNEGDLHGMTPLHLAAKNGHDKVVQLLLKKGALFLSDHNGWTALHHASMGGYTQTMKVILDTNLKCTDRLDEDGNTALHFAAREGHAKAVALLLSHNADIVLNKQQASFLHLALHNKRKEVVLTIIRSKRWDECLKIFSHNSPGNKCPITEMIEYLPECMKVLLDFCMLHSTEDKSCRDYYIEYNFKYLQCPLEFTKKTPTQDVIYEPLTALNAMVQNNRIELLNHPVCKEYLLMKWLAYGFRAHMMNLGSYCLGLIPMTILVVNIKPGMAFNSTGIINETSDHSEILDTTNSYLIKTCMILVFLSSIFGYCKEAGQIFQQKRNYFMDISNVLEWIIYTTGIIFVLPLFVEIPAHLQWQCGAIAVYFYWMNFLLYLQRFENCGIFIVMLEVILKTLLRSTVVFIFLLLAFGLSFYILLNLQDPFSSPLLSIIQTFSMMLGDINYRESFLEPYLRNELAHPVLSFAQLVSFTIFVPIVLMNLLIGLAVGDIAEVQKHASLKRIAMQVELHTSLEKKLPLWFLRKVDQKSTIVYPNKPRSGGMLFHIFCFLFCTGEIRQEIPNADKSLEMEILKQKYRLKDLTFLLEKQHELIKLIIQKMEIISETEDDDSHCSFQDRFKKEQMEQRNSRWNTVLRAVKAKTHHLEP

## C=CCN=C=S [AITC, allyl isothiocyanate]
NCI-H716 cells; 500 μM
  GLP-1 secretion as compared with the untreated control group: 3.9 times
hTRPA1 [1]
  calcium response / hTRPA1 action in hTRPA1-expressed cells (Ca2+ imaging): all cells were activated
  calcium release in hTRPA1 stably expressing cell line: calcium was released
  activity inhibition by ruthenium red (RR): most activities were inhibited
hTRPA1 [1]; treatment with TRPA1 antagonist HC-030031
  activity inhibition by HC-030031: not inhibited

## O=CC=Cc1ccccc1 [CALD, cinnamaldehyde]
hTRPA1 [1]
  calcium response / hTRPA1 action in hTRPA1-expressed cells (Ca2+ imaging): all cells were activated
  calcium release in hTRPA1 stably expressing cell line: calcium was released
  activity inhibition by ruthenium red (RR): most activities were inhibited

## O=C(/C=C/c1ccc(O)c(O)c1)O[C@@H]1C[C@](O)(C(=O)O)C[C@@H](O)[C@H]1O [chlorogenic acid]
hTRPA1 [1]
  calcium response / hTRPA1 action in hTRPA1-expressed cells (Ca2+ imaging): no effects

## COc1cc(/C=C/CO)ccc1O [coniferyl alcohol, Coniferyl alcohol]
[2]
  ocular tears or irritation due to spray: ocular pain (tingling, stinging, and dizziness) was observed
NCI-H716 cells; 3 μM
  GLP-1 secretion as compared with the untreated control group: 3 times
NCI-H716 cells; 10 μM or higher
  GLP-1 secretion as compared with the untreated control group: ≥ 4 times
hTRPA1 [3]; FIG. 29
  EC50: 654 µM
hTRPA1 [3]; HC-030031 100 μM
  Ca2+ response inhibited by TRPA1 antagonist HC-030031: inhibited; also recorded: significantly reduced
hTRPA1 [3]; RR 30 μM
  Ca2+ response inhibited by cationic channel blocker RR: inhibited
hTRPA1 [1]
  calcium response / hTRPA1 action in hTRPA1-expressed cells (Ca2+ imaging): specifically acted on hTRPA1; also recorded: increased the intercellular Ca^2+ influx in a time-dependent manner
  activity inhibition by ruthenium red (RR): completely blocked
[4]
  taste description in sensory test: the remaining taste was stronger than the first taste and the tongue burns or has a pain
[4]; 15-point scale, n=6
  intensity of pungent tastes (spicy, tingle, and tangy tastes): 11.83±1.6

Reference: US9301989B2, “hTRPA1-activating composition and use thereof” (KOREA FOOD RESEARCH INSTITUTE, priority 2011, dated 2016)
